The numbers were not newly measured in US7517900B2, “Pyrazole derivatives as cannabinoid receptor modulators” (Bristol-Myers Squibb Company, priority 2003, dated 2009), which cites them from elsewhere.

The test system of series [1] is human subjects. Particulars: 16 week trial period, Phase IIb.
The conditions of series [2]: chronic administration for two weeks.

Take `Cc1c(C(=O)NN2CCCCC2)nn(-c2ccc(Cl)cc2Cl)c1-c1ccc(Cl)cc1` [SR-141716]: in series [1], the “body weight in human subjects” value is “dose-dependently reduced body weight”.

As for `Cc1c(C(=O)NN2CCCCC2)nn(-c2ccc(Cl)cc2Cl)c1-c1ccc(I)cc1` [AM-251], the body weight entry in series [2] is listed as “substantial body weight reduction”.
